# Experimental data as given in publication PMC10641814 (Journal of Medicinal Chemistry, 2023).
# T1: hMAO-B (Homo sapiens, UniProt P27338)
# T1 construct: purchased Sigma-Aldrich M7441
# T1 sequence (P27338 1-520): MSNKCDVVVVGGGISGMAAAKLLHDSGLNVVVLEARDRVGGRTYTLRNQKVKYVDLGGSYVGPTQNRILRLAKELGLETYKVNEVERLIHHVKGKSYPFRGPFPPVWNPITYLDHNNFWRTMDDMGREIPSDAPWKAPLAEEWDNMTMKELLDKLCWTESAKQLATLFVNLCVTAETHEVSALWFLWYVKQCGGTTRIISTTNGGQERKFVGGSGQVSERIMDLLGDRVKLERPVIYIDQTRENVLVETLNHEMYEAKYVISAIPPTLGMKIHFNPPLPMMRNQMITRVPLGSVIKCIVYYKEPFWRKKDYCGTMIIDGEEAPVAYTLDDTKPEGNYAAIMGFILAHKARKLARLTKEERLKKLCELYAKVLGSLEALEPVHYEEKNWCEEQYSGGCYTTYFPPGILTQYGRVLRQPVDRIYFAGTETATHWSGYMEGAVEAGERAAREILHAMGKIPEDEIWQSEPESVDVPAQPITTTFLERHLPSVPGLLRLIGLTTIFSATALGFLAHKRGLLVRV
# B1: mouse 5-HT3A receptor (receptor, UniProt P23979 24-489, looked up)
# chain: SRRRATQARDTTQPALLRLSDHLLANYKKGVRPVRDWRKPTTVSIDVIMYAILNVDEKNQVLTTYIWYRQYWTDEFLQWTPEDFDNVTKLSIPTDSIWVPDILINEFVDVGKSPNIPYVYVHHRGEVQNYKPLQLVTACSLDIYNFPFDVQNCSLTFTSWLHTIQDINITLWRSPEEVRSDKSIFINQGEWELLEVFPQFKEFSIDISNSYAEMKFYVIIRRRPLFYAVSLLLPSIFLMVVDIVGFCLPPDSGERVSFKITLLLGYSVFLIIVSDTLPATAIGTPLIGVYFVVCMALLVISLAETIFIVRLVHKQDLQRPVPDWLRHLVLDRIAWILCLGEQPMAHRPPATFQANKTDDCSGSDLLPAMGNHCSHVGGPQDLEKTPRGRGSPLPPPREASLAVRGLLQELSSIRHFLEKRDEMREVARDWLRVGYVLDRLLFRIYLLAVLAYSITLVTLWSIWHYS
# notes: 5-hydroxytryptamine (serotonin) receptor 3A, mouse; called full-length in the discussion; the construct is only said to be 'as previously described with some minor modifications'; The intracellular domain is only partly resolved; also called m5-HT3R; m5HT3R
# What was measured:
# h5-HT6R = target: T2, h5-HT6R (Homo sapiens, UniProt P50406); assay: 5-HT6R antagonist activity at Gs signaling, cAMP in 1321N1 cells (5-CT stimulated); format: cell-based; details: 1321N1 cells expressing h5-HT6R; read-out: EC50 (agonist, cAMP production)
# T2 construct: expressed in transfected cells
# T2 sequence (P50406 whole entry): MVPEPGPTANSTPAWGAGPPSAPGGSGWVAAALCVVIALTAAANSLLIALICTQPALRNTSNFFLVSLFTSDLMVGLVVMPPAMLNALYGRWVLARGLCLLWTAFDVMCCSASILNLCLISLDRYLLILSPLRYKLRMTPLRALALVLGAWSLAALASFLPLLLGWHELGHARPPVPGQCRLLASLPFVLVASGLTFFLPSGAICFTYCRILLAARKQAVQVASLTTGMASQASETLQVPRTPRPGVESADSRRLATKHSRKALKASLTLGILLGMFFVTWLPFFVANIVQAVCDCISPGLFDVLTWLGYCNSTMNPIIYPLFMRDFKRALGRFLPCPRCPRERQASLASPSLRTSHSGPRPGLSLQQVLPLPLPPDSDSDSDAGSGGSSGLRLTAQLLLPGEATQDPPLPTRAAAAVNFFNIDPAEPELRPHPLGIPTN
# hMAO-B = target: T1, hMAO-B; assay: MAO-B reversibility study; format: biochemical; details: at concentrations corresponding to IC80, p-tyramine raised to 1 mM
# [1] = tested on: SCOP-induced cognitive impairment in rats; assay: Scopolamine-induced amnesia in NOR test in rats; format: in vivo, rat; details: SCOP 1.25 mg/kg ip, PZ-1922 0.3, 1, 3 mg/kg ip, donepezil 1 and 3 mg/kg ip
# Procedure: Rats were allowed to acclimate for at least 7 days before the beginning of the experimental procedure. During this week, the animals were handled at least 3 times. Behavioral testing was carried out during the light phase of the light/dark cycle. The experiments were conducted in accordance with the NIH Guide for the Care and Use of Laboratory Animals and were approved by the Ethics Committee for Animal Experiments, Maj Institute of Pharmacology. At least 1 h before the beginning of the experiments, rats were transferred to the experimental room for acclimation. Rats were tested in a dimly lit (25 lx) “open field” apparatus made of dull gray plastic (66 × 56 × 30 cm). After each measurement, the floor was cleaned and dried. […] For the scopolamine-induced memory impairment paradigm, 1 h ITI was chosen. During the first trial (familiarization T1), two identical objects (A1 and A2) were presented in opposite corners, approximately 10 cm from the walls of the open field. In the second trial (recognition, T2), one of the objects was replaced by a novel one (A = familiar and B = novel). […] Exploration time of the objects and the distance traveled were measured using the Any-maze video tracking system. Based on exploration time (E) of two objects during T2, the discrimination index (DI) was calculated according to the formula DI = (EB – EA)/(EA + AB).
# [2] = target: the molecule itself; assay: cryo-EM structure; purified receptor in detergent C12E9, pentameric SEC fractions concentrated to 10 mg/mL, incubated 5 min with PZ-1922 or PZ-1939 before freezing
molecule,measurement,setting,value
"NCCc1c[nH]c2ccc(C(N)=O)cc12 [Compound 5-CT, 5-carboxamidotryptamine]",EC50,h5-HT6R,13 nM
C#CCN[C@@H]1CCc2ccccc21 [Rasagiline],reversibility of MAO-B inhibition (recovery of MAO-B activity),hMAO-B,irreversible inhibitor
C[C@H](NCc1ccc(OCc2cccc(F)c2)cc1)C(N)=O [Safinamide],reversibility of MAO-B inhibition (recovery of MAO-B activity),hMAO-B,reversible MAO-B inhibitors
COc1cc2c(cc1OC)C(=O)C(CC1CCN(Cc3ccccc3)CC1)C2 (centres unmarked) [donepezil],effect on SCOP-induced short-term memory deficits (discrimination index) in NOR test,[1],reduced the memory deficits induced by SCOP
B1,stoichiometry N,[2],5
